Experimental data taken from US20060160865A1, “Pyridinyl carbamates” (Novo Nordisk A/S, priority 2003, published 2006).

Target: T1, Hormone-sensitive lipase (HSL) (Homo sapiens, UniProt Q05469)
T1 construct: made in house
T1 sequence (Q05469 1-775 isoform Q05469-2): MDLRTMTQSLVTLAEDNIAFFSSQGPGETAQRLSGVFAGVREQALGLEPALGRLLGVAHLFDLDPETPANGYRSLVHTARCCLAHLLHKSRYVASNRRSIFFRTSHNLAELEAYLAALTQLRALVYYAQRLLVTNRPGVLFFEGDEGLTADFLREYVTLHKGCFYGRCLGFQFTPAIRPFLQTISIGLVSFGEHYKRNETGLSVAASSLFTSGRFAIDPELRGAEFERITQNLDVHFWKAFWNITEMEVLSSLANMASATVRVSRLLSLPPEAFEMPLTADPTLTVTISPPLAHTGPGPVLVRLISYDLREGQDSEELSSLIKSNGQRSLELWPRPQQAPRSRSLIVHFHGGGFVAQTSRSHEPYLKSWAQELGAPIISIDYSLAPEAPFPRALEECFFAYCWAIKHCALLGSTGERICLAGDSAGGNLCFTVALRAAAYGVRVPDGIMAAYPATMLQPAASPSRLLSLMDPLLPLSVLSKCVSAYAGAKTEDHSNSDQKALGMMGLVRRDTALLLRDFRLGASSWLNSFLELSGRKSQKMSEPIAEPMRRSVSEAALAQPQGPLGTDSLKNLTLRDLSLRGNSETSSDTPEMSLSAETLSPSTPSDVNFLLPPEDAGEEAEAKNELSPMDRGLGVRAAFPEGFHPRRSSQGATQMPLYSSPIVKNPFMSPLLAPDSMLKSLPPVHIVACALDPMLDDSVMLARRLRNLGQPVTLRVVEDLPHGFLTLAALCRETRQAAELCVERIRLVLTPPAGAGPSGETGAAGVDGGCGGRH
Assay: Assay 3190.1: percent inhibition of hormone sensitive lipase by compound at 10 μM (fluorochrome-labeled triacylglyceride substrate)
Assay type: biochemical
Details: 10 μM sample concentration; % activity relative to non-inhibited sample (no compound); 30 min pre-incubation at 25° C., 120 min at 37° C.; read-out: Test 3190.1 HSL_FL % ACTIVITY
From the text: Materials. The Hormone-sensitive lipase was provided by Dr. Cecilia Holm, from Lund University Sweden or produced and purified by Novo Nordisk (NN) using the reagents and protocols used by Dr. Holm. The substrates used are: ^3H-labeled triolein (TO) from Amersham, Buckinghamshire, U.K. cat No. TRA191; 5-20 Ci/mmol dissolved in toluene, triolein (Sigma, Cat. No. T-1740), fluorochrome-labeled triacylglyceride (cis-octadec-9-enoic acid 2-[12-(7-nitrobenzo[1,2,5]oxadiazol-4-ylamino)dodecanoyloxy]-1-cis-octadec-9-enoyloxymethyl-ethyl ester) prepared by Novo Nordisk (NN) by conventional methods, and 1,3-(di[^3H]-stearin), 2-(PEG-Biotin)glycerol prepared in collaboration with Amersham Pharmacia Biotech, UK and described in WO 01/073442. Phosphatidyl choline (PC) and phosphatidyl inositol (PI) are from Sigma (St Luis Mo. cat. Nos. P-3556 and P-5954 respectively). All other reagents are of commercial grade and obtained from various commercial sources.
3190.1: Assay for determination of percent inhibition of hormone sensitive lipase by compound at 10 μM sample concentration.
A lipid emulsion with fluorochrome-labeled triacylglyceride and phospholipid is used as substrate with a standard concentration of highly purified HSL (12 μg/mL initial concentration corresponding to 600 ng/mL final concentration). BSA is added as product acceptor. The transfer of the fluorochrome from the lipid phase to the water (BSA) phase changes the fluorescent properties of the fluorochrome. The changes can be monitored on a fluorimeter with an excitation wavelength of 450 nm and an emission wavelength of 545 nm.
Compound and HSL (20 μL compound, 10 μL enzyme and 70 μL PED-BSA buffer) is pre-incubated for 30 min at 25° C. before addition of substrate (100 μL). Amount of formed product is measured after 120 min incubation at 37° C.
Results are given as percent activity relative to a non-inhibited sample (no compound). 3190.2: Assay for determination of IC50 value for the inhibition of hormone sensitive lipase by compound. Standard concentrations of compound are 100 μM and 5-fold dilutions (initial concentration corresponding to 10 μM final concentration and 5-fold).

Row | SMILES | activity at 10 µM
1 | CN(C(=O)Oc1ccc(CCN2C(=O)CC(C)(C)CC2=O)cn1)c1ccccc1 [Example 1, Methyl-phenyl-carbamic acid 5-[2-(4,4-dimethyl-2,6-dioxo-piperidin-1-yl)-ethyl]-pyridin-2-yl ester] | 0%
2 | CN(C(=O)Oc1ccc(NCC(=O)OC(C)(C)C)cn1)c1ccccc1 [Example 2, [6-(Methyl-phenyl-carbamoyloxy)-pyridin-3-ylamino]-acetic acid tert-butyl ester] | 1%
3 | CN(C(=O)Oc1ccc(N2C(=O)CNC2=S)cn1)c1ccccc1 [Example 5, Methyl-phenyl-carbamic acid 5-(5-oxo-2-thioxo-imidazolidin-1-yl)-pyridin-2-yl ester] | 9%
4 | CCC1NC(=S)N(c2ccc(OC(=O)N(C)c3ccccc3)nc2)C1=O (stereo not drawn) [Example 8, Methyl-phenyl-carbamic acid 5-(4-ethyl-5-oxo-2-thioxo-imidazolidin-1-yl)-pyridin-2-yl ester] | 3%
5 | CN(C(=O)Oc1ccc(NC(=S)NCC(C)(C)C)cn1)c1ccccc1 [Example 12, Methyl-phenyl-carbamic acid 5-[3-(2,2-dimethyl-propyl)-thioureido]-pyridin-2-yl ester] | 2%
6 | CCCCNC(=S)Nc1ccc(OC(=O)N(C)c2ccccc2)nc1 [Example 16, Methyl-phenyl-carbamic acid 5-(3-butyl-thioureido)-pyridin-2-yl ester] | 1%
7 | COc1cccc(C(=O)Nc2ccc(OC(=O)N(C)c3ccccc3)nc2)c1 [Example 21, Methyl-phenyl-carbamic acid 5-(3-methoxy-benzoylamino)-pyridin-2-yl ester] | 1%
8 | CN(C(=O)Oc1ccc(NC(=O)c2cccc(C(F)(F)F)c2F)cn1)c1ccccc1 [Example 28, Methyl-phenyl-carbamic acid 5-(2-fluoro-3-trifluoromethyl-benzoylamino)-pyridin-2-yl ester] | 1%
9 | CN(C)c1cccc(C(=O)Nc2ccc(OC(=O)N(C)c3ccccc3)nc2)c1 [Example 31, Methyl-phenyl-carbamic acid 5-(3-dimethylamino-benzoylamino)-pyridin-2-yl ester] | 3%
10 | COc1ccccc1N(C)C(=O)Oc1ccc(N2C(=O)CC(C)(C)CC2=O)cn1 [Example 32, (2-Methoxy-phenyl)-methyl-carbamic acid 4,4-dimethyl-2,6-dioxo-3,4,5,6-tetrahydro-2H-[1,3′]bipyridinyl-6′-yl ester] | 6%
11 | CN(C(=O)Oc1ccc(NC(=O)NC(C)(C)C)cn1)c1ccccc1 [Example 35, Methyl-phenyl-carbamic acid 5-(3-tert-butyl-ureido)-pyridin-2-yl ester] | 8%
12 | CC1CCN(Cc2ccc(C(=O)Nc3ccc(OC(=O)N(C)c4ccccc4)nc3)cc2)CC1 [Example 41, Methyl-phenyl-carbamic acid 5-[4-(4-methyl-piperidin-1-ylmethyl)-benzoylamino]-pyridin-2-yl ester] | 3%
13 | CC1CCCCN1Cc1ccc(C(=O)Nc2ccc(OC(=O)N(C)c3ccccc3)nc2)cc1 (stereo not drawn) [Example 43, Methyl-phenyl-carbamic acid 5-[4-(2-methyl-piperidin-1-ylmethyl)-benzoylamino]-pyridin-2-yl ester] | 7%
14 | CN(C(=O)Oc1ccc(NC(=O)c2ccc(CN3CCCC3)cc2)cn1)c1ccccc1 [Example 47, Methyl-phenyl-carbamic acid 5-(4-pyrrolidin-1-ylmethyl-benzoylamino)-pyridin-2-yl ester] | 7%
15 | C[C@@H]1CN(Cc2ccc(C(=O)Nc3ccc(OC(=O)N(C)c4ccccc4)nc3)cc2)C[C@H](C)O1 [Example 52, cis-Methyl-phenyl-carbamic acid 5-[4-(2,6-dimethyl-morpholin-4-ylmethyl)-benzoylamino]-pyridin-2-yl ester] | 4%
16 | CN(C(=O)Oc1ccc(NC(=O)c2ccc(-n3ccnc3)cc2)cn1)c1ccccc1 [Example 57, Methyl-phenyl-carbamic acid 5-(4-imidazol-1-yl-benzoylamino)-pyridin-2-yl ester] | 17%
17 | CCN(CC)c1ccc(C(=O)Nc2ccc(OC(=O)N(C)c3ccccc3)nc2)cc1 [Example 58, Methyl-phenyl-carbamic acid 5-(4-diethylamino-benzoylamino)-pyridin-2-yl ester] | 11%
18 | CC1CCN(C(=S)Nc2ccc(OC(=O)N(C)c3ccccc3)nc2)CC1 [Example 63, Methyl-phenyl-carbamic acid 5-[(4-methyl-piperidine-1-carbothioyl)-amino]-pyridin-2-yl ester] | 2%
19 | CN(C(=O)Oc1ccc(N2C(=O)CC(C)(C)CC2=O)cn1)c1ccc(Br)cc1 [Example 65, (4-Bromo-phenyl)-methyl-carbamic acid 4,4-dimethyl-2,6-dioxo-3,4,5,6-tetrahydro-2H-[1,3′]bipyridinyl-6′-yl ester] | 0%
20 | COc1ccc(N(C)C(=O)Oc2ccc(N3C(=O)CC(C)(C)CC3=O)cn2)cc1 [Example 72, (4-Methoxy-phenyl)-methyl-carbamic acid 4,4-dimethyl-2,6-dioxo-3,4,5,6-tetrahydro-2H-[1,3′]bipyridinyl-6′-yl ester] | 2%
21 | CN(C(=O)Oc1ccc(N2C(=O)CC(C)(C)CC2=O)cn1)c1ccc(CCO)cc1 [Example 77, [4-(2-Hydroxy-ethyl)-phenyl]-methyl-carbamic acid 4,4-dimethyl-2,6-dioxo-3,4,5,6-tetrahydro-2H-[1,3′]bipyridinyl-6′-yl ester] | 12%
